In patent US20250243174A1, “ANTITUMORAL COMPOUNDS” (PHARMA MAR, S.A., priority 2021, published 2025):
Like-named read-outs stand apart in the source and are kept apart here.

Columns and labels:
[1] = system: H460 xenografts; assay: Example 5, NSCLC xenograft model H460; assay type: in vivo; details: for tumor reduction compared to placebo: higher doses 16, 2 or 1 mg/kg; for TV, median (IQR) / Median survival time: iv Q7dx3; for TV, median (IQR): high dose: PM060184 16, Comp. 2 2, Comp. 3 1 mg/kg; for antitumor activity compared to PM060184 (16 mg/kg) / mean time frame during which the animals had tumor remission / mean body weight reduction: compound 2 2.0 mg/kg, compound 3 1.0 mg/kg; for animals with complete tumor remission: highest dose: compound 2 2.0, compound 3 1.0 mg/kg; for mean body weight reduction: recorded on Day 9
Protocol: Female athymic nu/nu mice (Harlan Laboratories Models, S.L. Barcelona, Spain or Envigo, Spain) were utilized for all experiments. Animal were housed in individually ventilated cages Sealsafe® Plus, Techniplast S.P.A.), up to ten per cage on a 12-hour light-dark cycle at 21-23° C. and 40-60% humidity. Mice were allowed free access to irradiated standard rodent diet (Tecklad 2914C) and sterilized water. Animals were acclimated for at least 5 days prior to tumor implantation with a tumor cell suspension.
H460 cells were maintained in vitro at 37° C. with 5% CO2 in Dulbecco's Modified Eagle's Medium (Sigma-Aldrich, Co). Culture cells were passaged every 3 to 5 days upon reaching confluence. Each animal was subcutaneously implanted (on the right flank using 26G needle and a 1 cc syringe) at 4-6 weeks of age with 5×10^6 H460 cells suspended in 0.05 mL of a solution consisting of 50% Matrigel® (Corning Incorporated Life Sciences) and 50% medium without serum or antibiotics.
All treatments were intravenously administered on a weekly basis at their MTD, ¼ MTD and 1/16 MTD (high, medium and low dose).
Briefly: • 4 to 6 week-old athymic nu/nu female mice were subcutaneously implanted with tumor cells growing in culture. • When tumors reached a certain volume, tumor bearing animals (N=8-10/group) were randomly allocated into treatment groups. • Tumor dimensions and body weights were recorded 2-3 times per week starting from the first day of treatment (Day 0). Treatments producing >20% lethality and/or 20% net body weight loss were considered toxic. Tumor volume was calculated using the equation (a·b^2)/2, where a and b were the longest and shortest diameters, respectively. Animals were euthanized when their tumors reached ca. 2,000 mm^3 and/or severe necrosis was seen. • Median was calculated for tumor volume on each measurement day. • Antitumor effect was assessed comparing tumor volume data from groups following the 1st, 2nd, 3rd study weeks, or more depending on the case, using a two-tailed Mann-Whitney U test. The data are presented as medians and interquartile range (IQR). • Complete tumor regression (CR) was defined when tumor volume<63 mm^3 for 2 or more consecutive measurements. • Treatment tolerability was assessed by monitoring body weight evolution, clinical signs of systemic toxicity as well as evidences of local damage at the injection site.
PM060184 was provided in the form of freeze-dried vials of lyophilized product. Each vial was reconstituted with water for infusion to a concentration of 2.5 mg/mL.
Compounds 2 and 3 were provided in the powder form and were solubilized with hydroxy-propyl-β-cyclodextrin (HPβCD), reaching a concentration of 1 mg/ml or 0.2 mg/ml, respectively. Placebo was provided in the form of lyophilised cake containing 1.2 g of hydroxy-propyl-β-cyclodextrin (HPβCD) which was reconstituted with water for infusion.
In these experiments, compounds 2, 3 and PM060184, as well as placebo, were intravenously administered once per week for 3 consecutive weeks, on Days 0, 7 and 14, whenever it was possible.
The experiment was carried out as previously explained. When tumors reached ca. 160-170 mm^3, tumor bearing animals (N=10/group) were randomly allocated into the following treatment groups:
Treatments were initiated on Day 0.

[2] = system: HT29; assay: SRB colorimetric cytotoxicity assay, HT29; assay type: cell-based; details: Homo sapiens, read-out: GI50 (M) HT29
Text: The aim of this assay is to evaluate the in vitro cytostatic (ability to delay or arrest tumor cell growth) or cytotoxic (ability to kill tumor cells) activity of the samples being tested.
A colorimetric assay, using sulforhodamine B (SRB) reaction has been adapted to provide a quantitative measurement of cell growth and viability (using the technique developed by Skehan et al., J. Natl. Cancer Inst. 1990 and following the protocol detailed in V. Vichai and K. Kirtikara (2006) Nature Protoc. 1, 1112-1116.)
This form of assay employs 96-well cell culture microplates. All the cell lines used in this study were obtained from the American Type Culture Collection (ATCC), unless otherwise indicated, and derive from different types of human cancer.
Cells were maintained in Dulbecco's Modified Eagle Medium (DMEM) (for A549, HT-29 and MDA-MB-231) or RPMI (for PSN-1) supplemented with 10% Fetal Bovine Serum (FBS), 2 mM L-glutamine, 100 U/mL penicillin and 100 U/mL streptomycin at 37° C., 5% CO2 and 98% humidity. For the experiments, cells were harvested from subconfluent cultures using trypsinization and resuspended in fresh medium before counting and plating.
Cells were seeded in 96 well microtiter plates, at 5×10^3 cells per well in aliquots of 150 μL, and allowed to attach to the plate surface for 18 hours (overnight) in drug free medium. After that, one control (untreated) plate of each cell line was fixed (as described below) and used for time zero reference value. Culture plates were then treated with test compounds (50 μL aliquots of 4× concentrated compound stock solutions made in complete culture medium) using ten serial dilutions (concentrations ranging from […]) and triplicate cultures (final concentration of DMSO being 1%). After 72 hours treatment, the antitumor effect was measured by using the SRB methodology: Briefly, cells were washed twice with PBS, fixed for 15 min in 1% glutaraldehyde solution at room temperature, rinsed twice in PBS, and stained in 0.4% SRB solution for 30 min at room temperature. Cells were then rinsed several times with 1% acetic acid solution and air-dried at room temperature. SRB was then extracted in 10 mM trizma base solution and the absorbance measured in an automated spectrophotometric plate reader at 490 nm. Effects on cell growth and survival were estimated by applying the NCI algorithm (Boyd M R and Paull K D. Drug Dev. Res. 1995, 34, 91-104).
Using the mean±SD of triplicates, a dose-response curve was automatically generated using nonlinear regression analysis to a 4-parameter logistic curve. Three reference parameters were calculated (NCI algorithm) by automatic interpolation: GI50=compound concentration that produces […] cell growth inhibition, as compared to control cultures.

[3] = high dose: compound 2 2.0, compound 3 1.0, PM060184 16 mg/kg
[4] = low dose: PM060184 1.0, Comp. 2 0.125, Comp. 3 0.0625 mg/kg
[5] = high dose: PM060184 16.0, Comp. 2 2.0, Comp. 3 1.0 mg/kg
[6] = medium dose: PM060184 4.0, Comp. 2 0.5, Comp. 3 0.25 mg/kg

| SMILES | tumor reduction compared to placebo ([1]; Day 7) | TV, median (IQR) ([1]; Day 7) | TV, median (IQR) ([1]; Day 14) | TV, median (IQR) ([1]; Day 21) | TV, median (IQR) ([1]; Day 28) | TV, median (IQR) ([1]; Day 35) | antitumor activity compared to PM060184 (16 mg/kg) [1] | mean time frame during which the animals had tumor remission [1] [days] | tumor remissions lasted [1, 3] | animals with complete tumor remission [1] [%] | Median survival time [1, 4] [days] | mean body weight reduction [1] | GI50 ([2]; HT-29, 72 h) [M] | Median survival time [1, 5] [days] | Median survival time [1, 6] [days] | other results |
| --- | --- | --- | --- | --- | --- | --- | --- | --- | --- | --- | --- | --- | --- | --- | --- | --- |
| COC1=CC[C@@H]([C@@H](C)/C=C(C)/C=C\C=C/C(=O)N[C@H](C(=O)N/C=C\C[C@H](CC=C(C)C)OC(N)=O)C(C)(C)C)OC1=O [Compound 3] | very strong, statistically significant tumor reduction | 123.9 (93.4-157.6) mm3 | 80.3 (71.0-83.5) mm3 | 59.3 (38.7-62.5) mm3 | 77.6 (55.3-85.1) mm3 | 374.8 (257.4-438.2) mm3 | stronger, statistically significant, antitumor activity | 7.8 | more than 45.1 days | 100 | 14 | ca. −18.5% | 2.22e-11 | – | – | antitumor activity of compound 3 compared to compound 2 ([1]; at the MTD's, 1.0 mg/kg or 2.0 mg/kg): statistically significant higher antitumor activity than compound 2; Median survival time ([1]; high dose: PM060184 16.0, Comp. 2 2.0, Comp. 3 1.0 mg/kg, 1 mg/kg): 45.5 days; Median survival time ([1]; high dose: PM060184 16.0, Comp. 2 2.0, Comp. 3 1.0 mg/kg, listed as Comp. 3, 1 mg/kg): 48 days; Median survival time ([1]; medium dose: PM060184 4.0, Comp. 2 0.5, Comp. 3 0.25 mg/kg, 0.25 mg/kg): 40 days; Median survival time ([1]; medium dose: PM060184 4.0, Comp. 2 0.5, Comp. 3 0.25 mg/kg, listed as Comp. 3, 0.25 mg/kg): 38.5 days |
| COC1=CC[C@@H]([C@@H](C)/C=C(C)/C=C\C=C/C(=O)N[C@H](C(=O)N/C=C\C[C@H](C/C=C(\C)F)OC(N)=O)C(C)(C)C)OC1=O [Compound 2] | very strong, statistically significant tumor reduction | 114.7 (97.2-131.6) mm3 | 80.9 (61.1-109.3) mm3 | 53.5 (33.4-59.7) mm3 | 95.0 (73.2-119.1) mm3 | 505.4 (428.9-583.7) mm3 | stronger, statistically significant, antitumor activity | 8.8 | more than 48 days | 100 | 14 | ca. −13.4% | 1.31e-11 | 45.5 | 40 | tumor remissions lasted ([1]; medium dose: compound 2 0.5 mg/kg): 30.9 days |
| C/C=C\C[C@@H](C/C=C\NC(=O)[C@@H](NC(=O)\C=C/C=C\C(C)=C\[C@H](C)[C@@H]1CC=C(OC)C(=O)O1)C(C)(C)C)OC(N)=O [PM060184, reference compound] | very strong, statistically significant tumor reduction | 100.1 (80.6-119.0) mm3 | 97.8 (74.5-149.3) mm3 | 129.4 (83.5-172.3) mm3 | 631.0 (454.0-873.9) mm3 | 1470 (1470-1666) mm3 | – | – | two | – | 16 | – | – | 37 | 30 | animals with complete tumor remission (number out of 10) ([1]; PM060184 16 mg/kg): Four out of 10; body weight decrease ([1]; recorded on Day 12, PM060184 16 mg/kg): ca. −6.8%; GI50 ([2]; HT-29, 72 hours treatment, SRB): 8.3e-11 M |
